# Data from patent US20180155344A1, “TRICYCLIC PIPERIDINE COMPOUNDS” (ACTELION PHARMACEUTICALS LTD, priority 2015, published 2018).
# Where a name gives a salt, the structure may show the parent alone.
# Molecular target: T1, human TPH1 (Homo sapiens, UniProt P17752)
# T1 sequence (P17752 1-444): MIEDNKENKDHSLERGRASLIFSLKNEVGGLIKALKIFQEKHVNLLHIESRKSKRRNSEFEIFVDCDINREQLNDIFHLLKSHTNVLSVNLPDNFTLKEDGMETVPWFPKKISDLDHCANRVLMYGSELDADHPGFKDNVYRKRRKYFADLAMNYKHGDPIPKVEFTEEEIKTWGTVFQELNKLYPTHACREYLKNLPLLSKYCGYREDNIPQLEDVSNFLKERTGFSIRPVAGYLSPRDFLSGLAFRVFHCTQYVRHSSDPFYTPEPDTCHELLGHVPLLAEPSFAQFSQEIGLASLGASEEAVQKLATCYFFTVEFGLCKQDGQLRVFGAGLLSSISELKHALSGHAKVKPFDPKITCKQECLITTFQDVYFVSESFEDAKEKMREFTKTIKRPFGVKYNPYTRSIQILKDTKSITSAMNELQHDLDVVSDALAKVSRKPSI
# Experiment: biochemical
# Procedure, shortened: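 Inhibition is derived from 5-hydroxy-L-tryptophan fluorescence (540 nm emission, 300 nm excitation) after perchloric acid stop, relative to DMSO vehicle. Recombinant full-length human enzyme (40-80 nM) reacts with 40 μM tryptophan plus 100 μM methyltetrahydropterin, pH 7.6 Tris/DTT/catalase, 15° C, 60 min.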
row,Structure (SMILES),IC50 [µM]
1,"Cc1nc(C)c(C2c3c(nc4cc(C(F)(F)F)ccn34)CCN2C(=O)COc2ccc(-c3ncco3)nc2Cl)s1 (stereo not drawn) [Example 3.59.1, 2-((2-chloro-6-(oxazol-2-yl)pyridin-3-yl)oxy)-1-(1-(2,4-dimethylthiazol-5-yl)-7-(trifluoromethyl)-3,4-dihydroimidazo[1,2-a:5,4-c′]dipyridin-2(1H)-yl)ethan-1-one]",0.022
2,"Cc1nc(C)c(C2c3c(nc4cc(C(F)(F)F)ccn34)CCN2C(=O)COc2ccc(C(=O)N(C)C3CC3)nc2Cl)s1 (stereo not drawn) [Example 3.59.2, 6-chloro-N-cyclopropyl-5-(2-(1-(2,4-dimethylthiazol-5-yl)-7-(trifluoromethyl)-3,4-dihydroimidazo[1,2-a:5,4-c′]dipyridin-2(1H)-yl)-2-oxoethoxy)-N-methylpicolinamide]",0.042
3,"COc1ccc(C2c3c(nc4cc(C)ccn34)CCN2C(=O)COc2ccc(Cl)cc2Cl)cc1OC (stereo not drawn) [Example 4.1.1, 2-(2,4-dichlorophenoxy)-1-(1-(3,4-dimethoxyphenyl)-7-methyl-3,4-dihydroimidazo[1,2-a:5,4-c′]dipyridin-2(1H)-yl)ethan-1-one]",0.032
4,"COc1ccc(C2c3c(nc4cc(C(C)(C)C)ccn34)CCN2C(=O)COc2ccc(Cl)cc2Cl)cc1OC (stereo not drawn) [Example 5.1.1, 1-(7-(tert-butyl)-1-(3,4-dimethoxyphenyl)-3,4-dihydroimidazo[1,2-a:5,4-c′]dipyridin-2(1H)-yl)-2-(2,4-dichlorophenoxy)ethan-1-one]",0.01
5,"COc1ccc(C2c3c(nc4ccc(-c5ccccc5)cn34)CCN2C(=O)COc2ccc3ccccc3c2)cc1OC (stereo not drawn) [Example 8.1.1, 1-(1-(3,4-dimethoxyphenyl)-8-phenyl-3,4-dihydroimidazo[1,2-a:5,4-c′]dipyridin-2(1H)-yl)-2-(naphthalen-2-yloxy)ethan-1-one]",0.038
6,"COc1ccc(C2c3c(nc4ccc(Br)cn34)CCN2C(=O)COc2ccc3ccccc3c2)cc1OC (stereo not drawn) [Example 10.1.1, 1-(8-bromo-1-(3,4-dimethoxyphenyl)-3,4-dihydroimidazo[1,2-a:5,4-c′]dipyridin-2(1H)-yl)-2-(naphthalen-2-yloxy)ethan-1-one]",0.124
7,"COc1ccc(C2c3c(nc4ccc(F)cn34)CCN2C(=O)COc2ccc3ccccc3c2)cc1OC (stereo not drawn) [Example 11.1.1, 1-(1-(3,4-dimethoxyphenyl)-8-fluoro-3,4-dihydroimidazo[1,2-a:5,4-c′]dipyridin-2(1H)-yl)-2-(naphthalen-2-yloxy)ethan-1-one]",0.122
8,"CS(=O)(=O)Nc1ccc(OCC(=O)N2CCc3nc4ccc(F)cn4c3C2c2ccc(Cl)cc2F)c(Cl)n1 (stereo not drawn) [Example 11.2.1, N-(6-chloro-5-(2-(1-(4-chloro-2-fluorophenyl)-8-fluoro-3,4-dihydroimidazo[1,2-a:5,4-c′]dipyridin-2(1H)-yl)-2-oxoethoxy)pyridin-2-yl)methanesulfonamide]",0.072
9,"CCc1nc(NS(C)(=O)=O)ccc1OCC(=O)N1CCc2nc3ccc(F)cn3c2C1c1ccc(Cl)cc1F (stereo not drawn) [Example 11.2.2, N-(5-(2-(1-(4-chloro-2-fluorophenyl)-8-fluoro-3,4-dihydroimidazo[1,2-a:5,4-c′]dipyridin-2(1H)-yl)-2-oxoethoxy)-6-ethylpyridin-2-yl)methanesulfonamide]",0.034
10,"CCc1nc(NS(C)(=O)=O)ccc1OCC(=O)N1CCc2nc3ccc(F)cn3c2C1c1sc(C)nc1C (stereo not drawn) [Example 11.3.1, N-(5-(2-(1-(2,4-dimethylthiazol-5-yl)-8-fluoro-3,4-dihydroimidazo[1,2-a:5,4-c′]dipyridin-2(1H)-yl)-2-oxoethoxy)-6-ethylpyridin-2-yl)methanesulfonamide]",0.048
11,"COc1ccc(C2c3c(nc4ccc(C(F)(F)F)cn34)CCN2C(=O)COc2ccc3ccccc3c2)cc1OC (stereo not drawn) [Example 12.1.1, 1-(1-(3,4-dimethoxyphenyl)-8-(trifluoromethyl)-3,4-dihydroimidazo[1,2-a:5,4-c′]dipyridin-2(1H)-yl)-2-(naphthalen-2-yloxy)ethan-1-one]",0.183
12,"CS(=O)(=O)Nc1ccc(OCC(=O)N2CCc3nc4cc(F)ccn4c3C2c2ccc(Cl)cc2F)c(Cl)n1 (stereo not drawn) [Example 14.1.1, N-(6-chloro-5-(2-(1-(4-chloro-2-fluorophenyl)-7-fluoro-3,4-dihydroimidazo[1,2-a:5,4-c′]dipyridin-2(1H)-yl)-2-oxoethoxy)pyridin-2-yl)methanesulfonamide]",0.074

# Second part, the compound after the results:
row,IC50 [µM],Structure (SMILES)
1,0.01,"COc1ccc(C2c3c(nc4cc(C)ccn34)CCN2C(=O)COc2ccc3ccccc3c2)cc1OC (stereo not drawn) [Example 4.1.2, 1-(1-(3,4-dimethoxyphenyl)-7-methyl-3,4-dihydroimidazo[1,2-a:5,4-c′]dipyridin-2(1H)-yl)-2-(naphthalen-2-yloxy)ethan-1-one]"
2,0.016,"CCc1cc2nc3c(n2cc1C)C(c1ccc(OC)c(OC)c1)N(C(=O)COc1ccc(Cl)cc1Cl)CC3 (stereo not drawn) [Example 6.1.1, 2-(2,4-dichlorophenoxy)-1-(1-(3,4-dimethoxyphenyl)-7-ethyl-8-methyl-3,4-dihydroimidazo[1,2-a:5,4-c′]dipyridin-2(1H)-yl)ethan-1-one]"
3,0.009,"CCc1cc2nc3c(n2cc1C)C(c1ccc(OC)c(OC)c1)N(C(=O)COc1ccc2ccccc2c1)CC3 (stereo not drawn) [Example 6.1.2, 1-(1-(3,4-dimethoxyphenyl)-7-ethyl-8-methyl-3,4-dihydroimidazo[1,2-a:5,4-c′]dipyridin-2(1H)-yl)-2-(naphthalen-2-yloxy)ethan-1-one]"
4,0.009,"CCc1cc2nc3c(n2cc1C)C(c1ccc(OC)c(OC)c1)N(C(=O)COc1ccc2ccccc2c1CC)CC3 (stereo not drawn) [Example 6.1.3, 1-(1-(3,4-dimethoxyphenyl)-7-ethyl-8-methyl-3,4-dihydroimidazo[1,2-a:5,4-c′]dipyridin-2(1H)-yl)-2-((1-ethylnaphthalen-2-yl)oxy)ethan-1-one]"
5,0.008,"CCc1cc2nc3c(n2cc1C)C(c1ccc(OC)c(OC)c1)N(C(=O)COc1ccc2ccccc2c1C)CC3 (stereo not drawn) [Example 6.1.4, 1-(1-(3,4-dimethoxyphenyl)-7-ethyl-8-methyl-3,4-dihydroimidazo[1,2-a:5,4-c′]dipyridin-2(1H)-yl)-2-((1-methylnaphthalen-2-yl)oxy)ethan-1-one hydrochloride]"
6,0.089,"COc1ccc(C2c3c(nc4ccc(C)cn34)CCN2C(=O)COc2ccc(Cl)cc2Cl)cc1OC (stereo not drawn) [Example 7.1.1, 2-(2,4-dichlorophenoxy)-1-(1-(3,4-dimethoxyphenyl)-8-methyl-3,4-dihydroimidazo[1,2-a:5,4-c′]dipyridin-2(1H)-yl)ethan-1-one]"
7,0.038,"COc1ccc(C2c3c(nc4ccc(C)cn34)CCN2C(=O)COc2ccc3ccccc3c2)cc1OC (stereo not drawn) [Example 7.1.2, 1-(1-(3,4-dimethoxyphenyl)-8-methyl-3,4-dihydroimidazo[1,2-a:5,4-c′]dipyridin-2(1H)-yl)-2-(naphthalen-2-yloxy)ethan-1-one]"
8,0.145,"COc1ccc(C2c3c(nc4ccc(Cl)cn34)CCN2C(=O)COc2ccc3ccccc3c2)cc1OC (stereo not drawn) [Example 9.1.1, 1-(8-chloro-1-(3,4-dimethoxyphenyl)-3,4-dihydroimidazo[1,2-a:5,4-c′]dipyridin-2(1H)-yl)-2-(naphthalen-2-yloxy)ethan-1-one]"
9,0.04,"COc1ccc(C2c3c(nc4cc(Cl)c(C)cn34)CCN2C(=O)COc2ccc3ccccc3c2)cc1OC (stereo not drawn) [Example 13.1.1, 1-(7-chloro-1-(3,4-dimethoxyphenyl)-8-methyl-3,4-dihydroimidazo[1,2-a:5,4-c′]dipyridin-2(1H)-yl)-2-(naphthalen-2-yloxy)ethan-1-one]"
